Data on 69 compounds can be found in PMC7539012, “Hyperphosphorylated tau aggregation and cytotoxicity modulators screen identified prescription drugs linked to Alzheimer's disease and cognitive functions” (Scientific Reports, 2020).

Structures can show the parent of a compound that is named as a salt.

The subject of the first assay is T1, 1N4R p-tau.
T1 construct: made in house; host or cells: E. coli (PIMAX system)
Put plainly: p-tau aggregation modulator screen of 1280-compound library (ThS fluorescence net change over 16 h).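 As to ThS net change: 30 µM compound with 6 µM p-tau over 16 h.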 It counts as biochemical. Further details: key to PTAI>3SD: *: PTAI>3SD.
Conditions: not given
`Cc1ccc(Cl)c(Nc2ccccc2C(=O)[O-])c1Cl.O.[Na+]` registered a ThS net change of 436.
In turn, `CN1CCc2cccc3c2[C@H]1Cc1ccc(O)c(O)c1-3.CN1CCc2cccc3c2[C@H]1Cc1ccc(O)c(O)c1-3.Cl.Cl.O` displayed a ThS net change of 233.
Take `CC(=O)NC1CCSC1=O` (racemic) [N-Acetyl-DL-homocysteine Thiolactone]: the ThS net change was 421.
The compound `C[C@]12CCC3[C@@H](CC[C@@H]4C[C@H](O)CC[C@]34C)[C@@H]1CCC2=O` (stereo partly drawn) [3-alpha-Hydroxy-5-beta-androstan-17-one] displayed a ThS net change of 426.
Same read-out and setting: for `Nc1ccc(C(=O)O)c(O)c1` [4-aminosalicylic acid] the value was 428.
Still for that read-out and setting: for `CN1CC[C@@]2(C)c3cc(O)ccc3N(C)[C@H]12.O=C(O)/C=C/C(=O)O` [(-)-Eseroline fumarate salt] the value was 309.
On the same count and under the same terms, for `COc1ccc2cc([C@@H](C)C(=O)[O-])ccc2c1.[Na+]` [(R) -Naproxen sodium salt] the value was 376.
Compound `CC(C)NC[C@@H](O)COc1cccc2ccccc12.Cl` [(R)-Propranolol hydrochloride] had a ThS net change of 416.
Still for that read-out and setting: for `CC(C)NC[C@H](O)COc1cccc2ccccc12` [(S)-propranolol hydrochloride] the value was 434; for `CC(=O)NCCCS(=O)(=O)O` [Acamprosate calcium], 422; for `COc1cc(C)c(/C=C/C(C)=C/C=C/C(C)=C/C(=O)O)c(C)c1C` [Acitretin], 316.
On the same count and under the same terms, the value for `CCCSc1ccc2nc(NC(=O)OC)[nH]c2c1` [Albendazole] was 324.

The same assay, now with this note: 1280-compound library screen; ThS fluorescence net change over 16 h.
As for `Cl.Cl.Cl.Cl.Cl.NCCNCCNCCNCCN`, the ThS net change was determined as 394.
The same measure, in the same setting: the value for `CC=CC(=O)N(CC)c1ccccc1C` (mixture of isomers) [Crotamiton] was 386; that for `CN(N=O)C(=O)N[C@H]1C(O)O[C@H](CO)[C@@H](O)[C@@H]1O` (mixture of isomers) [Streptozotocin] was 384.
Same read-out and setting: for `NCC(CC(=O)O)c1ccc(Cl)cc1` (racemic) [Baclofen (R,S)] the value was 407; for `CC(C)(S)C(N)C(=O)O` (racemic) [D,L-Penicillamine], 385; for `COCCc1ccc(OCC(O)CNC(C)C)cc1.COCCc1ccc(OCC(O)CNC(C)C)cc1.O=C(O)C(O)C(O)C(=O)O` (racemic) [Metoprolol-(+,-) (+)-tartrate salt], 390.
In the case of `CC(C)NCC(O)COc1ccc(CC(N)=O)cc1` (stereo in doubt) [(R)-(+)-Atenolol], the ThS net change came to 395.
Turning to `NC1CONC1=O` (stereo in doubt) [(S)-(-)-Cycloserine], the ThS net change is 391.
The compound `Clc1cnccn1` [2-Chloropyrazine] came in with a ThS net change of 410.
On the same count and under the same terms, for `CC(C)(C)NC[C@H](O)COc1cccc2c1CCCC2=O.Cl` [(-) -Levobunolol hydrochloride] the value was 397.
With `CC(C)NC[C@H](O)c1ccc(O)c(O)c1.Cl` [(-)-Isoproterenol hydrochloride], the ThS net change amounted to 400.
Still for that read-out and setting: for `CCCC(=O)Nc1ccc(OCC(O)CNC(C)C)c(C(C)=O)c1` (stereo not shown) [Acebutolol hydrochloride] the value was 381; for `O=C(O)COC(=O)Cc1ccccc1Nc1c(Cl)cccc1Cl` [Aceclofenac], 390.
For `CC(=O)Nc1ccc(O)cc1` [Acetaminophen], the ThS net change is recorded as 385.

The assay is the same for the next values; noted with them: 1280-compound library screen; […].
Compound `CNCC(O)c1ccc(O)cc1` (racemic) [(+,-)-Synephrine] returned a ThS net change of 410.
Compound `CC(=O)OC1CN2CCC1CC2` (stereo not shown) [Aceclidine Hydrochloride] returned a ThS net change of 409.

Staying with this assay, now noted: flag: p-tau aggregation inhibitor, ThS net change more than 3 SD from mean.
`O=C1c2cccc(O)c2C(=O)c2c(O)cccc21` [1,8-Dihydroxyanthraquinone]: the “PTAI>3SD” value is recorded as “*”.

Staying with this assay, now noted: library screen, ThS fluorescence net change over 16 h with p-tau.
As to `COC(=O)C1=C(C)NC(C)=C(C(=O)O[C@@H]2CCCN(Cc3ccccc3)C2)[C@@H]1c1cccc([N+](=O)[O-])c1.Cl` (racemic) [Benidipine hydrochloride], the ThS net change was 259.
The same measure, in the same setting: for `O=C1c2cccc(O)c2C(=O)c2c(O)cccc21` [1,8-Dihydroxyanthraquinone] the value was 25; for `CC(=O)c1ccc2c(c1)N(CCCN(C)C)c1ccccc1S2.O=C(O)/C=C\C(=O)O` [Acetopromazine maleate salt], 267; for `CCN(CC)CCOC(=O)C(c1ccccc1)c1ccccc1` [Adiphenine hydrochloride], 318.

Still in this assay, the particulars now being: p-tau aggregation modulator screen of 1280-compound library; ThS fluorescence net change.
In turn, `CC(C)NCC(O)c1cc(O)cc(O)c1.CC(C)NCC(O)c1cc(O)cc(O)c1.O=S(=O)(O)O` (stereo not shown) gave a ThS net change of 362.
Regarding `Cl.Cl.c1ccc2c(c1)CCCc1cc(NCCN3CCOCC3)nnc1-2`, the ThS net change was determined as 345.
Still for that read-out and setting: the value for `O=C(O)Cc1cc(I)c(Oc2ccc(O)c(I)c2)c(I)c1` was 369; that for `CN(Cc1cnc2nc(N)nc(N)c2n1)c1ccc(C(=O)NC(CCC(=O)O)C(=O)O)cc1` (racemic) [Amethopterin (R,S)] was 373; that for `CC(C)NCC(O)COc1ccc(CC(N)=O)cc1` (stereo in doubt) [(S)-(-)-Atenolol] was 363.
Same read-out and setting: the value for `CC(C)(C)NC[C@@H](O)COc1cccc2c1CCCC2=O.Cl` [(+) -Levobunolol hydrochloride] was 350; that for `CC(C)NC[C@@H](O)c1ccc(O)c(O)c1.O=C(O)C(O)C(O)C(=O)O` [(+)-Isoproterenol (+)-bitartrate salt] was 345; that for `Nc1nc(=O)n([C@@H]2CS[C@H](CO)O2)cc1F` [(-)-Emtricitabine] was 359.
Turning to `Nc1nc(NC2CC2)c2ncn([C@H]3C=C[C@@H](CO)C3)c2n1` [Abacavir Sulfate], the ThS net change was 363.
On the same count and under the same terms, the value for `COc1ccc2c(c1)c(CC(=O)OCC(=O)O)c(C)n2C(=O)c1ccc(Cl)cc1` [Acemetacin] was 349; that for `CC(=O)c1ccc(S(=O)(=O)NC(=O)NC2CCCCC2)cc1` [Acetohexamide] was 360.
The compound `CC(=O)Oc1ccccc1C(=O)Oc1ccccc1C(=O)O` [Acetylsalicylsalicylic acid] came in with a ThS net change of 363.
`Cc1cnc(C(=O)O)c[n+]1[O-]` [Acipimox] registered a ThS net change of 369.
Compound `Nc1nc2c(ncn2COCCO)c(=O)[nH]1` [Acyclovir] showed a ThS net change of 367.

The same assay, now with this note: p-tau aggregation modulator screen of 1280-compound library; […].
With `Br.COc1ccc2c(c1)[C@]13CCCC[C@@H]1[C@H](C2)N(C)CC3.O`, the ThS net change is given as 372.
In turn, `COc1cc2c(cc1OC)C(C)NCC2.Cl` (stereo not shown) showed a ThS net change of 359.
Still for that read-out and setting: for `C[C@@]12N[C@@H](Cc3ccccc31)c1ccccc12.O=C(O)/C=C\C(=O)O` [(-)-MK 801 hydrogen maleate] the value was 354; for `Nc1ncnc2c1ncn2[C@@H]1O[C@H](COP(=O)(O)O)[C@@H](O)[C@H]1O.O` [Adenosine 5'-monophosphate monohydrate], 369; for `C[C@]12CCC(=O)C=C1CC[C@@H]1[C@@H]2C(=O)C[C@]2(C)C(=O)CC[C@@H]12` [Adrenosterone], 334.

Staying with this assay, now noted: p-tau aggregation modulator screen of the compound library, ThS fluorescence net change.
`CC=CC1=C(C(=O)O)N2C(=O)[C@@H](NC(=O)[C@H](N)c3ccc(O)cc3)[C@H]2SC1` (mixture of isomers) [Cefprozil] registered a ThS net change of 440.
In the case of `CCCCC(C)(O)C/C=C/[C@H]1[C@H](O)CC(=O)[C@@H]1CCCCCCC(=O)OC` (mixture of isomers) [Misoprostol], the ThS net change came out at 495.
On the same count and under the same terms, for `C#C[C@]1(OC(C)=O)CC[C@H]2[C@@H]3CCC4=CC(=NO)CC[C@@H]4[C@H]3CC[C@@]21CC` (mixture of isomers) [Norgestimate] the value was 486; for `Cl.NCC(O)c1ccc(O)cc1` (racemic) [(+,-)-Octopamine hydrochloride], 413; for `OCC(O)CN1CCN(c2ccccc2)CC1` (racemic) [Dropropizine (R,S)], 418.
Regarding `Nc1c2c(nc3ccccc13)CCCC2O.O=C(O)/C=C\C(=O)O` (racemic) [Hydroxytacrine maleate (R,S)], the ThS net change was found to be 423.
Compound `Nc1ccccc1S(N)(=O)=O` [2-Aminobenzenesulfonamide] had a ThS net change of 430.
The same measure, in the same setting: for `O=c1[nH]cc(F)c(=O)[nH]1` [5-fluorouracil] the value was 471; for `c1coc(CNc2ncnc3nc[nH]c23)c1` [6-Furfurylaminopurine], 413.
Still for that read-out and setting: for `C[C@H]1O[C@H](O[C@H]2[C@H](O)[C@@H](O)[C@@H](O[C@H]3[C@H](O)[C@@H](O)C(O)O[C@@H]3CO)O[C@@H]2CO)[C@H](O)[C@@H](O)[C@@H]1N[C@H]1C=C(CO)[C@@H](O)[C@H](O)[C@H]1O` (stereo partly shown) [Acarbose] the value was 414.
The same measure, in the same setting: the value for `Cn1c(=O)c2c(ncn2CC(=O)O)n(C)c1=O` [Acefylline] was 416.
`CC(=O)CC(c1ccc([N+](=O)[O-])cc1)c1c(O)c2ccccc2oc1=O` (stereo not shown) [Acenocoumarol] had a ThS net change of 568.
Same read-out and setting: the value for `CC(=O)Nc1nnc(S(N)(=O)=O)s1` [Acetazolamide] was 429; that for `CC(=O)N[C@@H](CS)C(=O)O` [Acetylcysteine] was 423.
Same read-out and setting: the value for `CC(=O)Oc1ccccc1C(=O)O` [Acetylsalicylic acid] was 492; that for `CC(=O)Nc1ccc(CC(=O)O)cc1` [Actarit] was 435; that for `NC12CC3CC(CC(C3)C1)C2.NC12CC3CC(CC(C3)C1)C2.O=C(O)/C=C/C(=O)O` [Adamantamine fumarate] was 423.
The same measure, in the same setting: the value for `COc1ccc(-c2ccc3cc(C(=O)O)ccc3c2)cc1C12CC3CC(CC(C3)C1)C2` [Adapalene] was 477.
